Data as given in BigSolDB 2.1.

NC(=O)CS(=O)C(c1ccccc1)c1ccccc1 (stereo not given)
Conditions | solubility (mole fraction)
in 2-butanone, 281 K | 0.00114
in 2-butanone, 304.7 K | 0.00253
in 2-butanone, 307.3 K | 0.00278
in 2-butanone, 314.1 K | 0.00354
in 2-butanone, 317.8 K | 0.00401
in 2-butanone, 319.6 K | 0.00429
in 2-butanone, 329.4 K | 0.0059
in 2-butanone, 332.8 K | 0.00661
in DMF, 280.7 K | 0.0552
in DMF, 283.3 K | 0.0579
in DMF, 290.8 K | 0.0656
in DMF, 293.6 K | 0.0702
in DMF, 300.1 K | 0.0784
in DMF, 311.5 K | 0.0926
in DMF, 318 K | 0.103
in DMF, 320.4 K | 0.108
in acetone, 278.2 K | 0.00141
in acetone, 284 K | 0.00175
in acetone, 290.4 K | 0.0021
in acetone, 294.1 K | 0.00239
in acetone, 303.2 K | 0.00321
in acetone, 307.5 K | 0.00371
in acetone, 311.8 K | 0.00426
in acetone, 320.2 K | 0.0057
in acetonitrile, 286.3 K | 0.000684
in acetonitrile, 293.1 K | 0.000981
in acetonitrile, 297.9 K | 0.00132
in acetonitrile, 301.4 K | 0.00163
in acetonitrile, 304.4 K | 0.00195
in acetonitrile, 311.1 K | 0.00292
in acetonitrile, 322 K | 0.00578
in acetonitrile, 326.4 K | 0.00729
in ethanol, 280.6 K | 0.000668
in ethanol, 285.2 K | 0.000755
in ethanol, 288.4 K | 0.000917
in ethanol, 294.2 K | 0.00111
in ethanol, 304.2 K | 0.00167
in ethanol, 313.7 K | 0.00253
in ethanol, 322.8 K | 0.00377
in ethanol, 330 K | 0.00527
in ethyl acetate, 273.2 K | 0.00046
in ethyl acetate, 288 K | 0.000602
in ethyl acetate, 291.9 K | 0.000709
in ethyl acetate, 298 K | 0.000844
in ethyl acetate, 303.5 K | 0.001
in ethyl acetate, 312.3 K | 0.00141
in ethyl acetate, 322.2 K | 0.002
in ethyl acetate, 328.3 K | 0.00255
in isopropanol, 283.2 K | 0.000603
in isopropanol, 287.9 K | 0.00086
in isopropanol, 295.8 K | 0.00106
in isopropanol, 299.8 K | 0.00129
in isopropanol, 308.5 K | 0.00193
in isopropanol, 317.6 K | 0.00291
in isopropanol, 323.5 K | 0.00388
in isopropanol, 331.5 K | 0.00607
in methanol, 277.9 K | 0.00189
in methanol, 289 K | 0.0028
in methanol, 297.5 K | 0.00394
in methanol, 301.8 K | 0.00459
in methanol, 308.4 K | 0.0059
in methanol, 314 K | 0.00744
in methanol, 318.2 K | 0.00891
in methanol, 319.7 K | 0.00945
in n-propanol, 284.5 K | 0.001
in n-propanol, 291.9 K | 0.00131
in n-propanol, 299 K | 0.00184
in n-propanol, 300.4 K | 0.00195
in n-propanol, 314.3 K | 0.00362
in n-propanol, 316.9 K | 0.00411
in n-propanol, 319.9 K | 0.00475
in n-propanol, 324.8 K | 0.00585
in water, 290.7 K | 5.4e-05
in water, 297.5 K | 8.1e-05
in water, 300.5 K | 8.8e-05
in water, 301.7 K | 0.000103
in water, 309.5 K | 0.00013
in water, 312.9 K | 0.000177
in water, 320.8 K | 0.000242
in water, 323.4 K | 0.000281
